Among the test systems are NCI-H226 lung; CAKI-1 renal; NCI-H460 lung; U251 CNS; HL-60(TB) leukemia; OVCAR-5 ovarian; K-562 leukemia; NCI-H522 lung; NCI-H23 lung; CCRF-CEM leukemia; HCT-15 colon; MOLT-4 leukemia; KM12 colon; HS 578T breast; A549 NSCLC.
Common to all, as to experiment: NCI tumour cell line growth inhibition, 48 h

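48-hour exposure; five concentrations; linearly interpolated endpoints. TGI: total growth inhibition.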 Bounds are passed on as bounds.

Consider `O=C(c1c(F)c(F)c(F)c(F)c1F)n1c(=O)[nH]c2ccccc21`, for which the TGI with NCI-H226 lung is 33.4 µM; in the assay with CAKI-1 renal, 11.3 µM; in the assay on NCI-H460 lung, 27.2 µM; with U251 CNS it was 25.5 µM; in the assay with HL-60(TB) leukemia, 5.05 µM; in the assay with OVCAR-5 ovarian, 29.7 µM. Moreover, the TGI in the assay on K-562 leukemia was 14.9 µM; with NCI-H522 lung it was 13.6 µM; in the assay with NCI-H23 lung, 11.4 µM; in the assay on CCRF-CEM leukemia it was 18.8 µM; with HCT-15 colon, 15.6 µM; with MOLT-4 leukemia, 18.7 µM. Further, the TGI in the assay on KM12 colon was 5.15 µM; with HS 578T breast, 38.8 µM; with A549 NSCLC, 32.5 µM.

Turning to `COC(=O)C1=C(C(=O)OC)C2(c3ccccc3)c3ccccc3C(=O)C1N2C1CCCCC1` (stereo not given), the TGI in the assay with NCI-H226 lung, in the assay with CAKI-1 renal, in the assay with NCI-H460 lung, with U251 CNS, in the assay on HL-60(TB) leukemia and in the assay with OVCAR-5 ovarian was over 100 µM throughout. Besides, the TGI was over 100 µM in the assay on K-562 leukemia; over 100 µM with NCI-H522 lung; over 100 µM with NCI-H23 lung; over 100 µM in the assay with CCRF-CEM leukemia; over 100 µM in the assay on HCT-15 colon; over 81.4 µM with MOLT-4 leukemia. Besides, the TGI in the assay with KM12 colon, in the assay on HS 578T breast and with A549 NSCLC was over 100 µM throughout.

Take `CC(C)/C(Cl)=N/OC(NC(=O)Nc1ccc(Cl)c(Cl)c1)(C(F)(F)F)C(F)(F)F`: the TGI with NCI-H226 lung amounted to 42.8 µM; with CAKI-1 renal, 3.61 µM; with NCI-H460 lung, 56.4 µM; in the assay with U251 CNS it was 33.2 µM; in the assay on HL-60(TB) leukemia, 6.39 µM; in the assay on OVCAR-5 ovarian it was 38.4 µM. The TGI in the assay with K-562 leukemia amounted to 8.86 µM; in the assay with NCI-H522 lung it was 3.31 µM; in the assay on NCI-H23 lung, 38.2 µM; in the assay on CCRF-CEM leukemia, 5.71 µM; in the assay with HCT-15 colon, 28.9 µM; with MOLT-4 leukemia, 12 µM. The TGI came to 36.1 µM in the assay with KM12 colon, 99.4 µM in the assay on HS 578T breast and 72.4 µM in the assay on A549 NSCLC.

As for `Nc1nc([O-])c([I+]c2ccccc2)c(=O)[nH]1`, the TGI in the assay on NCI-H226 lung, with CAKI-1 renal, in the assay on NCI-H460 lung, with U251 CNS, with HL-60(TB) leukemia and with OVCAR-5 ovarian was over 100 µM throughout. The TGI in the assay with K-562 leukemia, with NCI-H522 lung, with NCI-H23 lung, in the assay on CCRF-CEM leukemia, with HCT-15 colon and with MOLT-4 leukemia was over 100 µM each time. Further, the TGI in the assay on KM12 colon, in the assay on HS 578T breast and in the assay on A549 NSCLC was over 100 µM throughout.

On to `Cc1cccc2c1CC(C1OC(=O)c3c(C)cccc31)C2=O` (stereo not given), for which the TGI in the assay on NCI-H226 lung, with CAKI-1 renal, with NCI-H460 lung, in the assay with U251 CNS, in the assay on HL-60(TB) leukemia and with OVCAR-5 ovarian was over 100 µM each time. The TGI in the assay on K-562 leukemia, in the assay on NCI-H522 lung, in the assay with NCI-H23 lung, in the assay with CCRF-CEM leukemia, in the assay with HCT-15 colon and in the assay on MOLT-4 leukemia was over 100 µM in each case. The TGI in the assay with KM12 colon, with HS 578T breast and with A549 NSCLC was over 100 µM each time.

For `COc1ccc(/C=C/C(=N/NC(=O)N/N=C(/C=C/c2ccc(OC)cc2)C(C)C)C(C)C)cc1`, the TGI in the assay with NCI-H226 lung, in the assay with CAKI-1 renal, in the assay with NCI-H460 lung, in the assay with U251 CNS, in the assay with HL-60(TB) leukemia and in the assay on OVCAR-5 ovarian was over 100 µM in each case. Besides, the TGI with K-562 leukemia, in the assay on NCI-H522 lung, in the assay on NCI-H23 lung, in the assay with CCRF-CEM leukemia, in the assay with HCT-15 colon and in the assay with MOLT-4 leukemia was over 100 µM in each case. Also, the TGI in the assay with KM12 colon, in the assay with HS 578T breast and in the assay on A549 NSCLC was over 100 µM each time.

`N#CCN(Cc1ccccc1)[C@H]1CCC[C@]1(O)/C=C/c1ccc2c(c1)OCO2`: the TGI is 44.4 µM in the assay on NCI-H226 lung; over 100 µM with CAKI-1 renal; 38.2 µM with NCI-H460 lung; 38.6 µM in the assay with U251 CNS; 34.9 µM in the assay with HL-60(TB) leukemia; over 100 µM with OVCAR-5 ovarian. Moreover, the TGI was found to be 51.5 µM in the assay with K-562 leukemia; 32.1 µM in the assay with NCI-H522 lung; 69.2 µM in the assay on NCI-H23 lung; 53.1 µM in the assay on CCRF-CEM leukemia; 60.2 µM in the assay on HCT-15 colon; 48.1 µM in the assay on MOLT-4 leukemia. Moreover, the TGI with KM12 colon is 45.3 µM; in the assay with HS 578T breast, 43 µM; with A549 NSCLC, over 100 µM.

For `NS(=O)(=O)c1ccc(NC(=S)/N=C/c2c(O)c3ccccc3[nH]c2=O)cc1`, the TGI in the assay on NCI-H226 lung was over 100 µM; in the assay with CAKI-1 renal it was over 100 µM; in the assay with NCI-H460 lung, over 100 µM; with U251 CNS, over 100 µM; in the assay on HL-60(TB) leukemia it was 5.05 µM; in the assay on OVCAR-5 ovarian, over 100 µM. Further, the TGI in the assay with K-562 leukemia, in the assay on NCI-H522 lung, with NCI-H23 lung, in the assay on CCRF-CEM leukemia, in the assay with HCT-15 colon and in the assay with MOLT-4 leukemia was over 100 µM in each case. For the same compound, the TGI with KM12 colon, in the assay on HS 578T breast and with A549 NSCLC was over 100 µM each time.

In the case of `CCOC(=O)NC(OCCN(C)C)(C(F)(F)F)C(F)(F)F`, the TGI in the assay with NCI-H226 lung, in the assay with CAKI-1 renal, with NCI-H460 lung, in the assay on U251 CNS, in the assay with HL-60(TB) leukemia and in the assay with OVCAR-5 ovarian was over 100 µM in each case. Also, the TGI with K-562 leukemia, in the assay on NCI-H522 lung, in the assay on NCI-H23 lung, in the assay with CCRF-CEM leukemia, in the assay with HCT-15 colon and with MOLT-4 leukemia was over 100 µM throughout. For the same compound, the TGI in the assay with KM12 colon, with HS 578T breast and in the assay on A549 NSCLC was over 100 µM each time.

Regarding `Cc1cccc(/C=N/NC(=S)NC2CCCCC2)n1`, the TGI in the assay with NCI-H226 lung was over 74.8 µM; with CAKI-1 renal, over 100 µM; with NCI-H460 lung, over 67.8 µM; with U251 CNS it was over 87.8 µM; in the assay with HL-60(TB) leukemia it was over 44.5 µM; in the assay on OVCAR-5 ovarian it was over 100 µM. Moreover, the TGI with K-562 leukemia was over 54.7 µM; with NCI-H522 lung it was over 64.3 µM; in the assay on NCI-H23 lung, over 100 µM; in the assay on CCRF-CEM leukemia, over 21.5 µM; in the assay on HCT-15 colon, over 100 µM; with MOLT-4 leukemia it was 13.9 µM. The results for the TGI with KM12 colon, in the assay with HS 578T breast and in the assay with A549 NSCLC were over 100 µM, over 100 µM and over 88.9 µM, respectively.

With `CC(C)(C)c1cc(C(C)(C)C)c(P=C(Cl)Cl)c(C(C)(C)C)c1` (stereo not given), the TGI with NCI-H226 lung, in the assay with CAKI-1 renal, with NCI-H460 lung, in the assay with U251 CNS, in the assay on HL-60(TB) leukemia and in the assay on OVCAR-5 ovarian was over 100 µM in each case. Further, the TGI in the assay on K-562 leukemia, in the assay on NCI-H522 lung, in the assay on NCI-H23 lung, in the assay on CCRF-CEM leukemia, in the assay with HCT-15 colon and in the assay with MOLT-4 leukemia was over 100 µM throughout. Moreover, the TGI in the assay on KM12 colon, with HS 578T breast and in the assay with A549 NSCLC was over 100 µM each time.

Take `CC(=O)O[C@H]1CC[C@@]2(C)C(=CC[C@H]3[C@@H]4C[C@H](N5CCN(C)CC5)[C@H](OC(C)=O)[C@@]4(C)CC[C@@H]32)C1`: the TGI was over 85.6 µM with NCI-H226 lung; over 66.5 µM with CAKI-1 renal; 49.4 µM in the assay on NCI-H460 lung; 40.5 µM with U251 CNS; 6.9 µM in the assay with HL-60(TB) leukemia; 76.9 µM in the assay on OVCAR-5 ovarian. Further, the TGI in the assay on K-562 leukemia was 4.07 µM; in the assay on NCI-H522 lung, 34.9 µM; with NCI-H23 lung, 48.3 µM; in the assay on CCRF-CEM leukemia, 16 µM; in the assay with HCT-15 colon, 26.6 µM; in the assay with MOLT-4 leukemia, 16.8 µM. In addition, the TGI with KM12 colon was found to be 32.3 µM; in the assay on HS 578T breast it was 61.8 µM; in the assay with A549 NSCLC, 36 µM.

The values are drawn from PubChem BioAssay (NCI).
